# From patent US5827837A, “Polyanion anti-inflammatory agents” (priority 1996, dated 1998)
# System: P-selectin (P-COS)
# Test: LS 180 cell adhesion to COS cells transfected with full length P-selectin (P-COS)
# Assay type: cell-based
# Conditions: 0.5 mM, 2 experiments
# Protocol: The effect of inositols on selectin-dependent cell adhesion was assessed using several in vitro assay systems. In the first, a colon cancer cell line, LS 180, was chosen because it binds to all three selecting.
# COS-1 cells were transfected as described (Seed, B., et al., Proc. Natl. Acad. Sci., U.S.A., 84:3365, 1987; Aruffo, A., Current Protocols In Molecular Biology, eds. supra, 1992) with pCDM7/pCDM8 expression vectors containing the full-length E-, P- and L-selectin cDNA. Transfected COS-1 cells were seeded on gelatin coated coverslips.
smiles,measurement,value
"O=P(O)(O)O[C@H]1[C@H](OP(=O)(O)O)[C@@H](OP(=O)(O)O)[C@H](OP(=O)(O)O)[C@@H](OP(=O)(O)O)[C@H]1OP(=O)(O)O [InsP6, myo-inositol hexakisphosphate]",inhibition of LS 180 cell adhesion to P-COS,95±5%
